Experimental data from ChEMBL document CHEMBL1201862, “PubChem BioAssay data set” (2004).
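Protocol summary: plate cells (96-well), add compound at 5 concentrations, incubate 48 h, interpolate endpoints linearly. Abbreviation: GI50, concentration required for 50% inhibition of growth.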 Calls of active or inactive are those of the source. Cut-off read from the data, not from the text of the source: active = GI50 up to about 1.1 µM and inactive = higher.

Columns and labels:
Assay in all cases: NCI-60 cell line screen, 48 h
[1] = system: A498
[2] = system: MDA-MB-435
[3] = system: SK-MEL-28
[4] = system: U-251
[5] = system: SK-MEL-2
[6] = system: RXF 393
[7] = system: PC-3
[8] = system: M14
[9] = system: CAKI-1
[10] = system: SF-295
[11] = system: HOP-62
[12] = system: HT-29
[13] = system: ACHN
[14] = system: SK-OV-3
[15] = system: HCT-116
[16] = system: UACC-62
[17] = system: LOX IMVI
[18] = system: UACC-257
[19] = system: HOP-92
[20] = system: SF-539

Structure (SMILES) | GI50 [1] | GI50 [2] | GI50 [3] | GI50 [4] | GI50 [5] | GI50 [6] | GI50 [7] | GI50 [8] | GI50 [9] | GI50 [10] | GI50 [11] | GI50 [12] | GI50 [13] | GI50 [14] | GI50 [15] | GI50 [16] | GI50 [17] | GI50 [18] | GI50 [19] | GI50 [20]
Cc1cc(N2CCN(C)CC2)n2nc(-c3ccc(Cl)cc3)nc2n1 | 43.3 µM (inactive) | > 100 µM (inactive) | 91.8 µM (inactive) | > 100 µM (inactive) | 74.8 µM (inactive) | 31.5 µM (inactive) | > 100 µM (inactive) | > 100 µM (inactive) | > 100 µM (inactive) | 91.2 µM (inactive) | > 100 µM (inactive) | 69.5 µM (inactive) | 50.6 µM (inactive) | > 100 µM (inactive) | 61.7 µM (inactive) | 75.3 µM (inactive) | 61.1 µM (inactive) | 77.6 µM (inactive) | > 100 µM (inactive) | 75 µM (inactive)
O=S1(=O)CCN(Cc2ccccn2)CC1 | > 100 µM (inactive) | > 100 µM (inactive) | > 100 µM (inactive) | > 100 µM (inactive) | > 100 µM (inactive) | > 100 µM (inactive) | > 100 µM (inactive) | > 100 µM (inactive) | > 100 µM (inactive) | > 100 µM (inactive) | > 100 µM (inactive) | > 100 µM (inactive) | > 100 µM (inactive) | > 100 µM (inactive) | > 100 µM (inactive) | > 100 µM (inactive) | > 100 µM (inactive) | > 100 µM (inactive) | > 100 µM (inactive) | > 100 µM (inactive)
Cc1nn(C(=O)c2ccccc2O)c2c1C(c1ccc([N+](=O)[O-])cc1)SC(=N)N2 (centres undefined) | 2.78 µM (inactive) | 1.45 µM (inactive) | > 10 µM (inactive) | 2.9 µM (inactive) | > 5.46 µM (inactive) | 2.54 µM (inactive) | > 9.53 µM (inactive) | 7.19 µM (inactive) | 2.19 µM (inactive) | 3.13 µM (inactive) | 4.92 µM (inactive) | > 6.67 µM (inactive) | 1.17 µM (inactive) | 6.38 µM (inactive) | 2.48 µM (inactive) | 2.03 µM (inactive) | 3.4 µM (inactive) | 3.21 µM (inactive) | 1.55 µM (inactive) | 0.984 µM (active)
COC(=O)CC1C=CC(C)(OC)OO1 (centres undefined) | > 100 µM (inactive) | > 100 µM (inactive) | > 100 µM (inactive) | > 100 µM (inactive) | > 100 µM (inactive) | 51.1 µM (inactive) | > 100 µM (inactive) | > 100 µM (inactive) | > 100 µM (inactive) | > 100 µM (inactive) | > 100 µM (inactive) | > 100 µM (inactive) | 94.4 µM (inactive) | > 100 µM (inactive) | > 100 µM (inactive) | 49.9 µM (inactive) | 48.3 µM (inactive) | > 100 µM (inactive) | > 100 µM (inactive) | > 100 µM (inactive)
CN(C)CCCNc1ccc2nnn3c4ccc(OC(=O)c5ccccc5)cc4c(=O)c1c23 | 8.41 µM (inactive) | 6.4 µM (inactive) | 15.8 µM (inactive) | 11.5 µM (inactive) | 15.9 µM (inactive) | 4.44 µM (inactive) | 8.34 µM (inactive) | 13.4 µM (inactive) | 0.579 µM (active) | 10.9 µM (inactive) | 5.92 µM (inactive) | 3.71 µM (inactive) | 3.05 µM (inactive) | 9.51 µM (inactive) | 3.15 µM (inactive) | 14.5 µM (inactive) | 2.17 µM (inactive) | 16 µM (inactive) | 12.6 µM (inactive) | 6.76 µM (inactive)
O=C(O)c1nc2ccc(C(F)(F)F)cc2nc1NCc1ccc(F)cc1 | 23.7 µM (inactive) | > 100 µM (inactive) | 40.8 µM (inactive) | 16.7 µM (inactive) | 19.5 µM (inactive) | > 100 µM (inactive) | 26.5 µM (inactive) | 18.5 µM (inactive) | 37.8 µM (inactive) | 23.5 µM (inactive) | 19.1 µM (inactive) | – | 27.2 µM (inactive) | 31.7 µM (inactive) | 15.9 µM (inactive) | 15.9 µM (inactive) | 15.6 µM (inactive) | 22.4 µM (inactive) | 17.1 µM (inactive) | 20.1 µM (inactive)
O=c1cc(NNc2cccc3ccccc23)[nH]c(=O)[nH]1 | 19.8 µM (inactive) | 17.1 µM (inactive) | 18.6 µM (inactive) | 14.6 µM (inactive) | 15 µM (inactive) | 17.9 µM (inactive) | 13.8 µM (inactive) | 15.9 µM (inactive) | 14.7 µM (inactive) | 17.5 µM (inactive) | 17 µM (inactive) | 17.6 µM (inactive) | 16.5 µM (inactive) | 26.7 µM (inactive) | 17.4 µM (inactive) | 17.5 µM (inactive) | 13.6 µM (inactive) | 15.7 µM (inactive) | 17.4 µM (inactive) | 15.6 µM (inactive)
